Experimental data reported in patent publication US20240376068A1, “SIGMA LIGAND COMPOUNDS AND USES THEREOF” (Minerva Neurosciences, Inc., priority 2020, published 2024).
Read-outs that look alike come from different tables or passages of the source. One block for each compound: values may come before it.

How the values were obtained:
Sigma 2 (h) = Sigma 2 (h) (Homo sapiens (Human), UniProt Q5BJF2); experiment: Sigma-2 binding assay
Experimental: (§1) Assays for determining Sigma-1 and Sigma-2 binding values were performed according to Ganapathy, M. E. et al. (1999), J. Pharmacol. Exp. Ther., 289:251-260.

sigma 1 (h) = sigma 1 (h) (Homo sapiens (Human), UniProt Q99720); experiment: Sigma-1 binding assay; details: [3H](+)pentazocine, Jurkat cells; read-out: Sigma-1 Ki
Experimental: as §1

α1a (h) [1] = molecular target: T1, α1a (h) (Homo sapiens (Human), UniProt P35348); experiment: α1A adrenergic antagonist effect assay; type: cell-based; details: for inhibition at 1 µM: α1A(h) antagonist effect, read-out: % inhibition of control values (1 μM)
Experimental: Assays for determining the antagonist effect on α1A (h) were performed according to the procedure described in Example 21, and the results are represented in Table E below. […] No antagonist effect is observed for the other compounds.

5HT2A = 5HT2A (Homo sapiens (Human), UniProt P28223); experiment: 5HT2A agonist effect assay; type: cell-based; details: for activation at 0.1 µM: 100 nM, read-out: % stimulation relative to control (100 nM); for activation at 1 µM: read-out: % stimulation relative to control (1 μM)
Experimental: Assays for determining the agonist effect on 5HT2A were performed according to the procedure described in Example 21, and the results are represented in Table F below. The compounds in Table F have no agonist effect on 5HT2A at 1 μM and 100 nM.

hERG = hERG (Homo sapiens (Human), UniProt Q12809); experiment: hERG inhibition assay
α1a (h) [2] = molecular target: T1, α1a (h); experiment: α1A adrenergic agonist effect assay; type: cell-based; details: α1A(h) agonist effect, 1 μM; read-out: % stimulation relative to control (1 μM)
Experimental: Assays for determining the agonist effect on α1A (h) were performed according to the procedure described in Example 21, and the results are represented in Table D below.

dopamine D2S receptor = dopamine D2S receptor (Homo sapiens (Human), UniProt P14416); experiment: Dopamine D2S receptor binding assay (Eurofins Cerep item 1322); details: [3H]7-OH-DPAT, read-out: % inhibition of control specific binding (1 μM)
Experimental: Assays for determining dopamine D2S receptor binding values were performed according to Eurofins Cerep protocol item 1322 and the results are represented in Table C below. The parameters used for the assay are described below. […] Common antipsychotics, in contrast, block dopamine receptors (Keefe, et al., J Clin Psychiatry. 2018; 79 (3): 17m11753).

[3] = [3H]DTG (+1 μM (+)pentazocine), Jurkat cells, read-out: Sigma-2 Ki

Sequence of sigma 1 (h) (Q99720 whole entry): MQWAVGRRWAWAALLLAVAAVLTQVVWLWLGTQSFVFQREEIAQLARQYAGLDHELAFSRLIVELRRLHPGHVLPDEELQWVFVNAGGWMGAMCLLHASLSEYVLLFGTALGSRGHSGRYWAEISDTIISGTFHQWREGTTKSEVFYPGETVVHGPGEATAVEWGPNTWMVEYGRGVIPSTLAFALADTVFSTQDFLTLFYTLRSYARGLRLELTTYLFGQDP
Sequence of hERG (Q12809 whole entry): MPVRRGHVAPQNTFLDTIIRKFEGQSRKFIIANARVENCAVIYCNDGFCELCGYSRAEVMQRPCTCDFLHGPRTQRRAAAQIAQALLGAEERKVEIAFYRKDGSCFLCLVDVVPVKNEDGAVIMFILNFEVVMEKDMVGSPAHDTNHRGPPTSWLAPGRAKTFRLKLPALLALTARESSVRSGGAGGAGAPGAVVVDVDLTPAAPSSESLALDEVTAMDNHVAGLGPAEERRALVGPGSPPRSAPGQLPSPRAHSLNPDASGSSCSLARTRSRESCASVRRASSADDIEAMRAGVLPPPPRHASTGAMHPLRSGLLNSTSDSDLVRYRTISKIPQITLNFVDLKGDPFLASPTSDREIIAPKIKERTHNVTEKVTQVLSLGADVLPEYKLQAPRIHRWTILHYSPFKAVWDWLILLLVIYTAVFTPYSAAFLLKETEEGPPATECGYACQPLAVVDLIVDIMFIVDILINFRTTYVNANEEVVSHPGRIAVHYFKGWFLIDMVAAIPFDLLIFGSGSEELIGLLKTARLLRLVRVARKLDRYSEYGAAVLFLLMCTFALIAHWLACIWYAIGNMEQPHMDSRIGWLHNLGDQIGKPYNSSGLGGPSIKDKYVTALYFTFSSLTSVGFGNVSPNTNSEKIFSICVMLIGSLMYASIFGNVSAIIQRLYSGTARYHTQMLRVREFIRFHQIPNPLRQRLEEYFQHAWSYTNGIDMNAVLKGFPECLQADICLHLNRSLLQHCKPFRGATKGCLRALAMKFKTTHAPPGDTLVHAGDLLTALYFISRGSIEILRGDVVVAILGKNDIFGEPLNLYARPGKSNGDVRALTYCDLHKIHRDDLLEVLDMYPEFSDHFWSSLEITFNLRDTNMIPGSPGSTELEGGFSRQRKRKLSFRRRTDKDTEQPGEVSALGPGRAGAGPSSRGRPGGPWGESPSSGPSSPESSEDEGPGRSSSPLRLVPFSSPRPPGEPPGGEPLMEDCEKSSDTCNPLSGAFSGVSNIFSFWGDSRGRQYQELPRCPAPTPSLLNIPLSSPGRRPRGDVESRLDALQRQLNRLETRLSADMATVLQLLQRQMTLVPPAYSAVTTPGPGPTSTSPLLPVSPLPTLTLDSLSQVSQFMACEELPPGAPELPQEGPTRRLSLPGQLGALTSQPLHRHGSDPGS
Sequence of dopamine D2S receptor (P14416 other isoform, or with tags, fused parts or gaps): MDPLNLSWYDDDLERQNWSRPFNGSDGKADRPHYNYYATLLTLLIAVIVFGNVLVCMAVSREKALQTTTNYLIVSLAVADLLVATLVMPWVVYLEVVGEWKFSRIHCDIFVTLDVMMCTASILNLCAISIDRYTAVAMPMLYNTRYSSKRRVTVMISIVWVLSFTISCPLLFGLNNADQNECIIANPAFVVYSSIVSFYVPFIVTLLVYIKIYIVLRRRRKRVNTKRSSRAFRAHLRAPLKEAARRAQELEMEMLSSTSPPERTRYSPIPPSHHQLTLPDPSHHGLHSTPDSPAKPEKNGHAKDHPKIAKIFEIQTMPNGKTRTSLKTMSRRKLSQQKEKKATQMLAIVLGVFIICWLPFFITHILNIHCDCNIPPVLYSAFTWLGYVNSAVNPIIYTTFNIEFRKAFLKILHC
T1 sequence (P35348 whole entry): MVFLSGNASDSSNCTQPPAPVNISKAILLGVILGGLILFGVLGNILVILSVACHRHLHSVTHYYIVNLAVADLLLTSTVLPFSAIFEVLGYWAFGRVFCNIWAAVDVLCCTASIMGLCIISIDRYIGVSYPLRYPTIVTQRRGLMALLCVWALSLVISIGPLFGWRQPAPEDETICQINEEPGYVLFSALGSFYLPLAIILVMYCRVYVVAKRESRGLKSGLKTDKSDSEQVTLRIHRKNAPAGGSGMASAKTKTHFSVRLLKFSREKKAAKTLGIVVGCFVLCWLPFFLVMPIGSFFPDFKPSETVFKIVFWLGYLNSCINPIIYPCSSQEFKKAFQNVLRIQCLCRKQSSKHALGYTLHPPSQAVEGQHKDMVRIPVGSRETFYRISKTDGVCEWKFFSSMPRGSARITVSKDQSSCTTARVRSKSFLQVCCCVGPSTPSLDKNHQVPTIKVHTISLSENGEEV
Sequence of Sigma 2 (h) (Q5BJF2 whole entry): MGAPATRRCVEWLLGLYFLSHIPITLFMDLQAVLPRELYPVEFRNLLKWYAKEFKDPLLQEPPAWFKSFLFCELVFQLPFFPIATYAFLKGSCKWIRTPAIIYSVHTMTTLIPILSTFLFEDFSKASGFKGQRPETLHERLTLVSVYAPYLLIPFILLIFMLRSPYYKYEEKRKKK

Ki (Sigma 2 (h); [3]): 100 to 500 nM | Ki (sigma 1 (h)): 100 to 500 nM
SMILES: CN1CCN(c2ccc3c(c2)CN(C(=O)OCc2ccccc2)CC3(C)C)CC1 [Compound 1, benzyl 4,4-dimethyl-7-(4-methylpiperazin-1-yl)-3,4-dihydroisoquinoline-2(1H)-carboxylate]

Ki (Sigma 2 (h); [3]): 5 to 50 nM | Ki (sigma 1 (h)): 100 to 500 nM
SMILES: COC(=O)CCN1CCN(c2ccc3c(c2)CN(C(=O)OCc2ccccc2)CC3(C)C)CC1 [Compound 3, benzyl 7-(4-(3-methoxy-3-oxopropyl)piperazin-1-yl)-4,4-dimethyl-3,4-dihydroisoquinoline-2(1H)-carboxylate]

Ki (Sigma 2 (h); [3]): 100 to 500 nM | Ki (sigma 1 (h)): > 500 nM
SMILES: CC1(C)CN(C2CCCC2)Cc2cc(-c3ccc(C(F)(F)F)cc3)ccc21 [Compound 4, 2-cyclopentyl-4,4-dimethyl-7-(4-(trifluoromethyl)phenyl)-1,2,3,4-tetrahydroisoquinoline]

Ki (Sigma 2 (h); [3]): 100 to 500 nM | Ki (sigma 1 (h)): 100 to 500 nM
SMILES: CC1(C)CN(CCCO)Cc2cc(-c3ccc(C(F)(F)F)cc3)ccc21 [Compound 5, 3-(4,4-dimethyl-7-(4-(trifluoromethyl)phenyl)-3,4-dihydroisoquinolin-2(1H)-yl)propan-1-ol]

Ki (Sigma 2 (h); [3]): > 500 nM | Ki (sigma 1 (h)): > 500 nM
SMILES: CCCN1Cc2cc(-c3ccc(C(F)(F)F)cc3)ccc2C(C)(C)C1 [Compound 6, 4,4-dimethyl-2-propyl-7-(4-(trifluoromethyl)phenyl)-1,2,3,4-tetrahydroisoquinoline]

Ki (Sigma 2 (h); [3]): 100 to 500 nM | Ki (sigma 1 (h)): 5 to 50 nM
SMILES: CN1CCN(c2ccc3c(c2)CN(C(=O)OCc2ccccc2)CCC3(C)C)CC1 [Compound 7, benzyl 5,5-dimethyl-8-(4-methylpiperazin-1-yl)-1,3,4,5-tetrahydro-2H-benzo[c]azepine-2-carboxylate]

Ki (Sigma 2 (h); [3]): 5 to 50 nM | Ki (sigma 1 (h)): 0.1 to 5 nM
SMILES: CCCN1CCN(c2ccc3c(c2)CN(C(=O)OCc2ccccc2)CCC3(C)C)CC1 [Compound 8, benzyl 5,5-dimethyl-8-(4-propylpiperazin-1-yl)-1,3,4,5-tetrahydro-2H-benzo[c]azepine-2-carboxylate]

Ki (Sigma 2 (h); [3]): 5 to 50 nM | Ki (sigma 1 (h)): 5 to 50 nM
SMILES: COC(=O)CCN1CCN(c2ccc3c(c2)CN(C(=O)OCc2ccccc2)CCC3(C)C)CC1 [Compound 9, benzyl 8-(4-(3-methoxy-3-oxopropyl)piperazin-1-yl)-5,5-dimethyl-1,3,4,5-tetrahydro-2H-benzo[c]azepine-2-carboxylate]

SMILES: CC1(C)CCN(CCCO)Cc2cc(-c3ccc(C(F)(F)F)cc3)ccc21 [Compound 11, 3-(5,5-dimethyl-8-(4-(trifluoromethyl)phenyl)-1,3,4,5-tetrahydro-2H-benzo[c]azepin-2-yl)propan-1-ol]
Ki (Sigma 2 (h); [3]): 100 to 500 nM | Ki (sigma 1 (h)): > 500 nM

SMILES: CCCN1CCC(C)(C)c2ccc(-c3ccc(C(F)(F)F)cc3)cc2C1 [Compound 12, 5,5-dimethyl-2-propyl-8-(4-(trifluoromethyl)phenyl)-2,3,4,5-tetrahydro-1H-benzo[c]azepine]
Ki (Sigma 2 (h); [3]): 50 to 100 nM | Ki (sigma 1 (h)): > 500 nM

SMILES: CC1(C)CCN(C2CCCCC2)Cc2cc(-c3ccc(C(F)(F)F)cc3)ccc21 [Compound 32, 2-cyclohexyl-5,5-dimethyl-8-(4-(trifluoromethyl)phenyl)-2,3,4,5-tetrahydro-1H-benzo[c]azepine]
inhibition at 1 µM (α1a (h) [1]): 25% | Ki (Sigma 2 (h)): 50 to 100 nM | activation at 0.1 µM (5HT2A): 1% | activation at 1 µM (5HT2A): 2% | IC50 (hERG): > 3000 nM | activation at 1 µM (α1a (h) [2]): 0% | inhibition at 1 µM (dopamine D2S receptor): 8%

SMILES: CC1(C)CN(S(=O)(=O)c2cccc(Cl)c2)Cc2cc(N3CCN(C4CCCC4)CC3)ccc21 [Compound 33, 2-((3-chlorophenyl)sulfonyl)-7-(4-cyclopentylpiperazin-1-yl)-4,4-dimethyl-1,2,3,4-tetrahydroisoquinoline]
inhibition at 1 µM (α1a (h) [1]): 9% | Ki (Sigma 2 (h); [3]): 0.1 to 5 nM | activation at 0.1 µM (5HT2A): 0% | activation at 1 µM (5HT2A): -1% | IC50 (hERG): > 3000 nM | Ki (sigma 1 (h)): 0.1 to 5 nM | activation at 1 µM (α1a (h) [2]): -1% | inhibition at 1 µM (dopamine D2S receptor): 13%

SMILES: CC1(C)CN(C(=O)c2cc(F)cc(Cl)c2)Cc2cc(N3CCN(C4CCCC4)CC3)ccc21 [Compound 38, (3-chloro-5-fluorophenyl)(7-(4-cyclopentylpiperazin-1-yl)-4,4-dimethyl-3,4-dihydroisoquinolin-2(1H)-yl)methanone]
antagonist effect on α1A (h) (in words) (α1a (h) [1]): small antagonist effect | inhibition at 1 µM (α1a (h) [1]): 51% | Ki (Sigma 2 (h); [3]): 0.1 to 5 nM | activation at 0.1 µM (5HT2A): 0% | activation at 1 µM (5HT2A): -1% | IC50 (hERG): 2040 nM | Ki (sigma 1 (h)): 0.1 to 5 nM | activation at 1 µM (α1a (h) [2]): 0% | inhibition at 1 µM (dopamine D2S receptor): 1%

SMILES: CC1(C)CN(C(=O)OC2CCCCC2)Cc2cc(N3CCN(C4CCCC4)CC3)ccc21 [Compound 43, cyclohexyl 7-(4-cyclopentylpiperazin-1-yl)-4,4-dimethyl-3,4-dihydroisoquinoline-2(1H)-carboxylate]
inhibition at 1 µM (α1a (h) [1]): 15% | Ki (Sigma 2 (h); [3]): 0.1 to 5 nM | activation at 0.1 µM (5HT2A): -4% | activation at 1 µM (5HT2A): 0% | IC50 (hERG): 2770 nM | Ki (sigma 1 (h)): 0.1 to 5 nM | activation at 1 µM (α1a (h) [2]): 0% | inhibition at 1 µM (dopamine D2S receptor): 11%

SMILES: CC(C)OC(=O)N1Cc2cc(N3CCN(C4CCCC4)CC3)ccc2C(C)(C)C1 [Compound 45, isopropyl 7-(4-cyclopentylpiperazin-1-yl)-4,4-dimethyl-3,4-dihydroisoquinoline-2(1H)-carboxylate]
inhibition at 1 µM (α1a (h) [1]): 19% | Ki (Sigma 2 (h); [3]): 5 to 50 nM | activation at 0.1 µM (5HT2A): -4% | activation at 1 µM (5HT2A): -1% | IC50 (hERG): > 3000 nM | Ki (sigma 1 (h)): 0.1 to 5 nM | activation at 1 µM (α1a (h) [2]): 0% | inhibition at 1 µM (dopamine D2S receptor): -5%

SMILES: CC1(C)CCN(C(=O)C2CCCC2)Cc2cc(N3CCN(C4CCCC4)CC3)ccc21 [Compound 73, cyclopentyl(8-(4-cyclopentylpiperazin-1-yl)-5,5-dimethyl-1,3,4,5-tetrahydro-2H-benzo[c]azepin-2-yl)methanone]
inhibition at 1 µM (α1a (h) [1]): 31% | Ki (Sigma 2 (h); [3]): 5 to 50 nM | activation at 0.1 µM (5HT2A): 2% | activation at 1 µM (5HT2A): 0% | IC50 (hERG): 2600 nM | Ki (sigma 1 (h)): 0.1 to 5 nM | activation at 1 µM (α1a (h) [2]): 0% | inhibition at 1 µM (dopamine D2S receptor): 6%

SMILES: CC1(C)CCN(C(=O)c2cccc3c2OCO3)Cc2cc(N3CCC(N4CCOCC4)CC3)ccc21 [Compound 84, benzo[d][1,3]dioxol-4-yl(5,5-dimethyl-8-(4-morpholinopiperidin-1-yl)-1,3,4,5-tetrahydro-2H-benzo[c]azepin-2-yl)methanone]
inhibition at 1 µM (α1a (h) [1]): 19% | activation at 0.1 µM (5HT2A): -2% | activation at 1 µM (5HT2A): -2% | IC50 (hERG): > 3000 nM | Ki (sigma 1 (h)): 5 to 50 nM | activation at 1 µM (α1a (h) [2]): 0% | inhibition at 1 µM (dopamine D2S receptor): -1%

SMILES: CC1(C)CCN(C(=O)C2CCCC2)Cc2cc(N3CCC(N4CCOCC4)CC3)ccc21 [Compound 85, cyclopentyl(5,5-dimethyl-8-(4-morpholinopiperidin-1-yl)-1,3,4,5-tetrahydro-2H-benzo[c]azepin-2-yl)methanone]
inhibition at 1 µM (α1a (h) [1]): 10% | activation at 0.1 µM (5HT2A): -2% | activation at 1 µM (5HT2A): 0% | IC50 (hERG): > 3000 nM | Ki (sigma 1 (h)): 5 to 50 nM | activation at 1 µM (α1a (h) [2]): 1% | inhibition at 1 µM (dopamine D2S receptor): -3%

SMILES: CC1(C)CCN(C(=O)C2CCCCC2)Cc2cc(N3CCC(N4CCOCC4)CC3)ccc21 [Compound 86, cyclohexyl(5,5-dimethyl-8-(4-morpholinopiperidin-1-yl)-1,3,4,5-tetrahydro-2H-benzo[c]azepin-2-yl)methanone]
inhibition at 1 µM (α1a (h) [1]): -3% | activation at 0.1 µM (5HT2A): 2% | activation at 1 µM (5HT2A): 1% | IC50 (hERG): > 3000 nM | Ki (sigma 1 (h)): 0.1 to 5 nM | activation at 1 µM (α1a (h) [2]): 0% | inhibition at 1 µM (dopamine D2S receptor): 2%

SMILES: Cc1cc(-c2ccc3c(c2)CN(CCC(=O)N2CCc4ccccc4C2)CCC3(C)C)cc(C)n1 [Compound 111, 1-(3,4-dihydroisoquinolin-2(1H)-yl)-3-(8-(2,6-dimethylpyridin-4-yl)-5,5-dimethyl-1,3,4,5-tetrahydro-2H-benzo[c]azepin-2-yl)propan-1-one]
antagonist effect on α1A (h) (in words) (α1a (h) [1]): small antagonist effect | inhibition at 1 µM (α1a (h) [1]): 57% | Ki (Sigma 2 (h); [3]): 50 to 100 nM | activation at 0.1 µM (5HT2A): -1% | activation at 1 µM (5HT2A): -2% | IC50 (hERG): 2220 nM | activation at 1 µM (α1a (h) [2]): 0% | inhibition at 1 µM (dopamine D2S receptor): 37%

SMILES: Cc1cc(-c2ccc3c(c2)CN(CCC(=O)N2CCC(C)CC2)CCC3(C)C)cc(C)n1 [Compound 131, 3-(8-(2,6-dimethylpyridin-4-yl)-5,5-dimethyl-1,3,4,5-tetrahydro-2H-benzo[c]azepin-2-yl)-1-(4-methylpiperidin-1-yl)propan-1-one]
inhibition at 1 µM (α1a (h) [1]): 31% | Ki (Sigma 2 (h)): 50 to 100 nM | activation at 0.1 µM (5HT2A): 1% | activation at 1 µM (5HT2A): -1% | IC50 (hERG): > 3000 nM | activation at 1 µM (α1a (h) [2]): -1% | inhibition at 1 µM (dopamine D2S receptor): 21%
